The structures appear in SMILES notation.

Experiment [1] addresses T1, Human M3 receptor (Homo sapiens, UniProt P20309).
T1 construct: purchased Perkin Elmer
Nature of the experiment: biochemical. It is filed as binding. Particulars: read-out: M3 Range.

For experiment [2], the target named is T2, Human β2 adrenoceptor (Homo sapiens, UniProt P07550).
T2 construct: purchased Perkin Elmer
Description: β2 adrenoceptor radioligand binding assay. The method, boiled down:
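Human β2 receptor membranes incubated 1 h at room temperature with 0.3 nM [125I]cyanopindolol and compound in pH 7.4 HEPES buffer (0.5% DMSO); 2 μM s-propranolol defined non-specific binding. Bound label counted after filtration; IC50 from competition curves, converted to Ki via Cheng–Prusoff.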

T1 sequence (P20309 whole entry): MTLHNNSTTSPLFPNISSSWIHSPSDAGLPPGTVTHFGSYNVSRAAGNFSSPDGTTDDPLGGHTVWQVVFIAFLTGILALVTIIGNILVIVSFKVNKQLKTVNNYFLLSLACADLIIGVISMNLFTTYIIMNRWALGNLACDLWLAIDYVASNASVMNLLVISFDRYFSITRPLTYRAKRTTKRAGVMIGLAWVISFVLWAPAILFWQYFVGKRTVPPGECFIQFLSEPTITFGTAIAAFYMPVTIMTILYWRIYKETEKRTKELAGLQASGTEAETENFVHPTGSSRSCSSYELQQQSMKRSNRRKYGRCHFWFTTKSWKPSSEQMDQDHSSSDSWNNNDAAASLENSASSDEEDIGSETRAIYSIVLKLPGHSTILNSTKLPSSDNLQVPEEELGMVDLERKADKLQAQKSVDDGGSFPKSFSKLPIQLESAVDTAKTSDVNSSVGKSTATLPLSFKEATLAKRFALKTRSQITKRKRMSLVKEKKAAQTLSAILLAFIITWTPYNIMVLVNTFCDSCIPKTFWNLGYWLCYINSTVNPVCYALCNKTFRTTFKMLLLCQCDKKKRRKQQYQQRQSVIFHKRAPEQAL
T2 sequence (P07550 whole entry): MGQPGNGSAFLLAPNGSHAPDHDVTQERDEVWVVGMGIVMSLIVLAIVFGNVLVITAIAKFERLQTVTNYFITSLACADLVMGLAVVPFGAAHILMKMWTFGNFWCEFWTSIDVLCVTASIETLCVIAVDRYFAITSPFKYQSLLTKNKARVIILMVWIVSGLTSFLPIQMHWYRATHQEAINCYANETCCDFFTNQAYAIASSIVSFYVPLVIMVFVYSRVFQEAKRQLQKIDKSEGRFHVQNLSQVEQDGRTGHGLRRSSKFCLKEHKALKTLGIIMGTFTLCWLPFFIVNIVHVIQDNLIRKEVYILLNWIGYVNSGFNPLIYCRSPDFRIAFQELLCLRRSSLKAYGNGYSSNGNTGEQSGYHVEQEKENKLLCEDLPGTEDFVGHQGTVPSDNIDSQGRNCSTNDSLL

In the case of `O=C(c1cncc(-c2cccc([C@](O)(C(=O)OCC3CCN(Cc4ccccc4)CC3)c3ccccc3)c2)n1)N1CCC(CNC[C@H](O)c2ccc(O)c3[nH]c(=O)ccc23)CC1` [Compound 6A, (1-Benzylpiperidin-4-yl)methyl (S)-2-hydroxy-2-(3-(6-(4-((((R)-2-hydroxy-2-(8-hydroxy-2-oxo-1,2-dihydroquinolin-5-yl)ethyl)amino)methyl)piperidine-1-carbonyl)pyrazin-2-yl)phenyl)-2-phenylacetate], the IC50 in experiment [1] and in experiment [2] was 0.3 to 3 nM each time.
In the case of `O=C(c1cc(-c2cccc([C@](O)(C(=O)OCC3CCN(Cc4ccccc4)CC3)c3ccccc3)c2)ccn1)N1CCC(CNC[C@H](O)c2ccc(O)c3[nH]c(=O)ccc23)CC1` [Compound 6B, (1-Benzylpiperidin-4-yl)methyl (S)-2-hydroxy-2-(3-(2-(4-((((R)-2-hydroxy-2-(8-hydroxy-2-oxo-1,2-dihydroquinolin-5-yl)ethyl)amino)methyl)piperidine-1-carbonyl)pyridin-4-yl)phenyl)-2-phenylacetate], the IC50 in experiment [1] is 0.3 to 3 nM; in experiment [2], less than 0.3 nM.
For `O=C(c1ccc(-c2cccc([C@](O)(C(=O)OCC3CCN(Cc4ccccc4)CC3)c3ccccc3)c2)cn1)N1CCC(CNC[C@H](O)c2ccc(O)c3[nH]c(=O)ccc23)CC1` [Compound 6C, (1-Benzylpiperidin-4-yl)methyl (S)-2-hydroxy-2-(3-(6-(4-((((R)-2-hydroxy-2-(8-hydroxy-2-oxo-1,2-dihydroquinolin-5-yl)ethyl)amino)methyl)piperidine-1-carbonyl)pyridin-3-yl)phenyl)-2-phenylacetate], the IC50 in experiment [1] and in experiment [2] was less than 0.3 nM in each case.
As for `O=C(c1ccc(-c2cccc([C@](O)(C(=O)OCC3CCN(Cc4ccccc4)CC3)c3ccccc3)c2)nc1)N1CCC(CNC[C@H](O)c2ccc(O)c3[nH]c(=O)ccc23)CC1` [Compound 6D, (1-Benzylpiperidin-4-yl)methyl (S)-2-hydroxy-2-(3-(5-(4-((((R)-2-hydroxy-2-(8-hydroxy-2-oxo-1,2-dihydroquinolin-5-yl)ethyl)amino)methyl)piperidine-1-carbonyl)pyridin-2-yl)phenyl)-2-phenylacetate], the results for the IC50 in experiment [1] and in experiment [2] were 0.3 to 3 nM and less than 0.3 nM, respectively.
Taken in the same sequence, the figures for `O=C(c1cncc(-c2cccc([C@](O)(C(=O)OCC3CCN(Cc4ccccc4)CC3)c3ccccc3)c2)c1)N1CCC(CNC[C@H](O)c2ccc(O)c3[nH]c(=O)ccc23)CC1` [Compound 6E, (1-Benzylpiperidin-4-yl)methyl (S)-2-hydroxy-2-(3-(5-(4-((((R)-2-hydroxy-2-(8-hydroxy-2-oxo-1,2-dihydroquinolin-5-yl)ethyl)amino)methyl)piperidine-1-carbonyl)pyridin-3-yl)phenyl)-2-phenylacetate] were 0.3 to 3 nM and less than 0.3 nM.
Taken in the same sequence, the figures for `O=C(c1cccc(-c2cccc([C@](O)(C(=O)OCC3CCN(Cc4ccccc4)CC3)c3ccccc3)c2)n1)N1CCC(CNC[C@H](O)c2ccc(O)c3[nH]c(=O)ccc23)CC1` [Compound 6F, (1-Benzylpiperidin-4-yl)methyl (S)-2-hydroxy-2-(3-(6-(4-((((R)-2-hydroxy-2-(8-hydroxy-2-oxo-1,2-dihydroquinolin-5-yl)ethyl)amino)methyl)piperidine-1-carbonyl)pyridin-2-yl)phenyl)-2-phenylacetate] were 0.3 to 3 nM and 0.3 to 3 nM.
With `O=C(c1ccc(CNC[C@H](O)c2ccc(O)c3[nH]c(=O)ccc23)cc1)N1CCC(c2cccc([C@](O)(C(=O)OCC3CCN(Cc4ccccc4)CC3)c3ccccc3)c2)CC1` [Compound 7, (1-Benzylpiperidin-4-yl)methyl (S)-2-hydroxy-2-(3-(1-(4-((((R)-2-hydroxy-2-(8-hydroxy-2-oxo-1,2-dihydroquinolin-5-yl)ethyl)amino)methyl)benzoyl)piperidin-4-yl)phenyl)-2-phenylacetate], the IC50 in experiment [1] and in experiment [2] was 0.3 to 3 nM in each case.
As to `COc1cc(C(=O)N2CCC(c3cccc([C@](O)(C(=O)OCC4CCN(Cc5ccccc5)CC4)c4ccccc4)c3)CC2)ccc1CNC[C@H](O)c1ccc(O)c2[nH]c(=O)ccc12` [Compound 7A, (1-Benzylpiperidin-4-yl)methyl (S)-2-hydroxy-2-(3-(1-(4-((((R)-2-hydroxy-2-(8-hydroxy-2-oxo-1,2-dihydroquinolin-5-yl)ethyl)amino)methyl)-3-methoxybenzoyl)piperidin-4-yl)phenyl)-2-phenylacetate], the IC50 in experiment [1] and in experiment [2] was 0.3 to 3 nM in each case.
As for `COc1cc(CNC[C@H](O)c2ccc(O)c3[nH]c(=O)ccc23)ccc1C(=O)N1CCC(c2cccc([C@](O)(C(=O)OCC3CCN(Cc4ccccc4)CC3)c3ccccc3)c2)CC1` [Compound 7B, (1-Benzylpiperidin-4-yl)methyl (S)-2-hydroxy-2-(3-(1-(4-((((R)-2-hydroxy-2-(8-hydroxy-2-oxo-1,2-dihydroquinolin-5-yl)ethyl)amino)methyl)-2-methoxybenzoyl)piperidin-4-yl)phenyl)-2-phenylacetate], the IC50 was 0.3 to 3 nM in experiment [1] and more than 3 nM in experiment [2].
Turning to `O=C(c1ccc(CCNC[C@H](O)c2ccc(O)c3[nH]c(=O)ccc23)cc1)N1CCC(c2cccc([C@](O)(C(=O)OCC3CCN(Cc4ccccc4)CC3)c3ccccc3)c2)CC1` [Compound 7C, (1-Benzylpiperidin-4-yl)methyl (S)-2-hydroxy-2-(3-(1-(4-(2-(((R)-2-hydroxy-2-(8-hydroxy-2-oxo-1,2-dihydroquinolin-5-yl)ethyl)amino)ethyl)benzoyl)piperidin-4-yl)phenyl)-2-phenylacetate], the IC50 is 0.3 to 3 nM in experiment [1] and less than 0.3 nM in experiment [2].
In the same order, the values of `O=C(c1ccc2c(c1)CC(NC[C@H](O)c1ccc(O)c3[nH]c(=O)ccc13)C2)N1CCC(c2cccc([C@](O)(C(=O)OCC3CCN(Cc4ccccc4)CC3)c3ccccc3)c2)CC1` (stereo partly drawn) [Compound 7D, (1-Benzylpiperidin-4-yl)methyl (2S)-2-hydroxy-2-(3-(1-(2-(((R)-2-hydroxy-2-(8-hydroxy-2-oxo-1,2-dihydroquinolin-5-yl)ethyl)amino)-2,3-dihydro-1H-indene-5-carbonyl)piperidin-4-yl)phenyl)-2-phenylacetate] are less than 0.3 nM and 0.3 to 3 nM.
Taken in the same sequence, the figures for `O=C(NCC(=O)N1CC=C(c2cccc([C@](O)(C(=O)OCC3CCN(Cc4ccccc4)CC3)c3ccccc3)c2)CC1)c1ccc(CCNC[C@H](O)c2ccc(O)c3[nH]c(=O)ccc23)cc1` [Compound 8, (1-Benzylpiperidin-4-yl)methyl (S)-2-hydroxy-2-(3-(1-((4-(2-(((R)-2-hydroxy-2-(8-hydroxy-2-oxo-1,2-dihydroquinolin-5-yl)ethyl)amino)ethyl)benzoyl)-glycyl)-1,2,3,6-tetrahydropyridin-4-yl)phenyl)-2-phenylacetate] were less than 0.3 nM and less than 0.3 nM.
`COc1cc(CNC[C@H](O)c2ccc(O)c3[nH]c(=O)ccc23)ccc1C(=O)NCC(=O)N1CC=C(c2cccc([C@](O)(C(=O)OCC3CCN(Cc4ccccc4)CC3)c3ccccc3)c2)CC1` [Compound 8A, (1-Benzylpiperidin-4-yl)methyl (S)-2-hydroxy-2-(3-(1-((4-((((R)-2-hydroxy-2-(8-hydroxy-2-oxo-1,2-dihydroquinolin-5-yl)ethyl)amino)methyl)-2-methoxybenzoyl)glycyl)-1,2,3,6-tetrahydropyridin-4-yl)phenyl)-2-phenylacetate]: the IC50 in experiment [1] is 0.3 to 3 nM; in experiment [2], less than 0.3 nM.
Taken in the same sequence, the figures for `C[C@@H](NC(=O)c1ccc(CNC[C@H](O)c2ccc(O)c3[nH]c(=O)ccc23)cc1)C(=O)N1CC=C(c2cccc([C@](O)(C(=O)OCC3CCN(Cc4ccccc4)CC3)c3ccccc3)c2)CC1` [Compound 8B, (1-Benzylpiperidin-4-yl)methyl (S)-2-hydroxy-2-(3-(1-((4-((((R)-2-hydroxy-2-(8-hydroxy-2-oxo-1,2-dihydroquinolin-5-yl)ethyl)amino)methyl)benzoyl)-D-alanyl)-1,2,3,6-tetrahydropyridin-4-yl)phenyl)-2-phenylacetate] were 0.3 to 3 nM and 0.3 to 3 nM.
On to `C[C@H](NC(=O)c1ccc(CNC[C@H](O)c2ccc(O)c3[nH]c(=O)ccc23)cc1)C(=O)N1CC=C(c2cccc([C@](O)(C(=O)OCC3CCN(Cc4ccccc4)CC3)c3ccccc3)c2)CC1` [Compound 8C, (1-Benzylpiperidin-4-yl)methyl (S)-2-hydroxy-2-(3-(1-((4-((((R)-2-hydroxy-2-(8-hydroxy-2-oxo-1,2-dihydroquinolin-5-yl)ethyl)amino)methyl)benzoyl)-L-alanyl)-1,2,3,6-tetrahydropyridin-4-yl)phenyl)-2-phenylacetate], for which the IC50 in experiment [1] and in experiment [2] was 0.3 to 3 nM in each case.
Take `O=C(NCC(=O)N1CC=C(c2cccc([C@](O)(C(=O)OCC3CCN(Cc4ccccc4)CC3)c3ccccc3)c2)CC1)c1ccc(CNC[C@H](O)c2ccc(O)c3[nH]c(=O)ccc23)cc1` [Compound 8D, (1-Benzylpiperidin-4-yl)methyl (S)-2-hydroxy-2-(3-(1-((4-((((R)-2-hydroxy-2-(8-hydroxy-2-oxo-1,2-dihydroquinolin-5-yl)ethyl)amino)methyl)-benzoyl)glycyl)-1,2,3,6-tetrahydropyridin-4-yl)phenyl)-2-phenylacetate]: the figures for the IC50 in experiment [1] and in experiment [2] were 0.3 to 3 nM and less than 0.3 nM, respectively.
In the same order, the values of `COc1cc(C(=O)NCC(=O)N2CC=C(c3cccc([C@](O)(C(=O)OCC4CCN(Cc5ccccc5)CC4)c4ccccc4)c3)CC2)ccc1CNC[C@H](O)c1ccc(O)c2[nH]c(=O)ccc12` [Compound 8E, (1-Benzylpiperidin-4-yl)methyl (S)-2-hydroxy-2-(3-(1-((4-((((R)-2-hydroxy-2-(8-hydroxy-2-oxo-1,2-dihydroquinolin-5-yl)ethyl)amino)methyl)-3-methoxybenzoyl)glycyl)-1,2,3,6-tetrahydropyridin-4-yl)phenyl)-2-phenylacetate] are 0.3 to 3 nM and less than 0.3 nM.

Values taken from patent US10196386B2, “Compounds having muscarinic receptor antagonist and beta2 adrenergic receptor agonist activity” (priority 2016, dated 2019).
